The target in assay [1] is Interferon-induced, double-stranded RNA-activated protein kinase (Homo sapiens) (UniProt P19525). In words: Selectivity interaction (ActivX KiNativ screen (ex vivo kinase selectivity in human PBMCs)) EUB0001619a EIF2AK2. The class given is cell-based. The note with it: PBMC, at 1 µM.
Assay [2] concerns Tyrosine-protein kinase ABL1 (Homo sapiens), P00519 [F317I]. Put plainly: Selectivity interaction (KinomeScan (DiscoverX)) EUB0000045b ABL1. The settings on record: at 1 µM.
Tyrosine-protein kinase ABL1 (Homo sapiens), P00519 [F317I], sequence (P00519 whole entry F317I, the tested form may be a part): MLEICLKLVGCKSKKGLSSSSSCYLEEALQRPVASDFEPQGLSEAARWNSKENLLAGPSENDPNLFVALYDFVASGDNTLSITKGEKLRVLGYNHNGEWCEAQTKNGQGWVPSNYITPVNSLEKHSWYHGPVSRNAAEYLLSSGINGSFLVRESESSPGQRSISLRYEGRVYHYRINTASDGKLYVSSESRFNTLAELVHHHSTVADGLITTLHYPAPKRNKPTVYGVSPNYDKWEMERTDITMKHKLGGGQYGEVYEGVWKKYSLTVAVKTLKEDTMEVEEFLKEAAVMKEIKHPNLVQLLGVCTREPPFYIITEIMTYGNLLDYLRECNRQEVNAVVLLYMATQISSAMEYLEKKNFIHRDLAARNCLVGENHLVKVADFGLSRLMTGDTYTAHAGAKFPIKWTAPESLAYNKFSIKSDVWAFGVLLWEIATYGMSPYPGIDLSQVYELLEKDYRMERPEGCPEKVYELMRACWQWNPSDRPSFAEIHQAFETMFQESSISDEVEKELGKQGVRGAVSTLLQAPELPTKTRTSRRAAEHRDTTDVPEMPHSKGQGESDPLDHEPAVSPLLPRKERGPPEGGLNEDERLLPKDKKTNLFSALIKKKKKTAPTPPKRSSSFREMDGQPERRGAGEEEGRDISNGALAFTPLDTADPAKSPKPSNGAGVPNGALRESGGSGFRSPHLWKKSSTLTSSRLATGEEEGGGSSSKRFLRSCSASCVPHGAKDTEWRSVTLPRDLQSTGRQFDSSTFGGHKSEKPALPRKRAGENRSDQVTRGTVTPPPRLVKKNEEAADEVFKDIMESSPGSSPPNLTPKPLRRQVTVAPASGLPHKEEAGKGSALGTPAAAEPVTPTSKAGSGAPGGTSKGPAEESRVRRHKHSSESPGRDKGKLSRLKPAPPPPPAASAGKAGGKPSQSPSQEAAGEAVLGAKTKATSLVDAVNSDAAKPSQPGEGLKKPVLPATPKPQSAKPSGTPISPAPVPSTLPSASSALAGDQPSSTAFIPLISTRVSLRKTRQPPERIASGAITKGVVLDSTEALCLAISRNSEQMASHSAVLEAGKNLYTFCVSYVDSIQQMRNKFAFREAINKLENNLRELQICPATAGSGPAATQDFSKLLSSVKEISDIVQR
The target in assay [3] is T1, Phosphatidylinositol 3-kinase C2 domain-containing subunit gamma (Homo sapiens) (UniProt O75747).
T1 sequence (whole entry): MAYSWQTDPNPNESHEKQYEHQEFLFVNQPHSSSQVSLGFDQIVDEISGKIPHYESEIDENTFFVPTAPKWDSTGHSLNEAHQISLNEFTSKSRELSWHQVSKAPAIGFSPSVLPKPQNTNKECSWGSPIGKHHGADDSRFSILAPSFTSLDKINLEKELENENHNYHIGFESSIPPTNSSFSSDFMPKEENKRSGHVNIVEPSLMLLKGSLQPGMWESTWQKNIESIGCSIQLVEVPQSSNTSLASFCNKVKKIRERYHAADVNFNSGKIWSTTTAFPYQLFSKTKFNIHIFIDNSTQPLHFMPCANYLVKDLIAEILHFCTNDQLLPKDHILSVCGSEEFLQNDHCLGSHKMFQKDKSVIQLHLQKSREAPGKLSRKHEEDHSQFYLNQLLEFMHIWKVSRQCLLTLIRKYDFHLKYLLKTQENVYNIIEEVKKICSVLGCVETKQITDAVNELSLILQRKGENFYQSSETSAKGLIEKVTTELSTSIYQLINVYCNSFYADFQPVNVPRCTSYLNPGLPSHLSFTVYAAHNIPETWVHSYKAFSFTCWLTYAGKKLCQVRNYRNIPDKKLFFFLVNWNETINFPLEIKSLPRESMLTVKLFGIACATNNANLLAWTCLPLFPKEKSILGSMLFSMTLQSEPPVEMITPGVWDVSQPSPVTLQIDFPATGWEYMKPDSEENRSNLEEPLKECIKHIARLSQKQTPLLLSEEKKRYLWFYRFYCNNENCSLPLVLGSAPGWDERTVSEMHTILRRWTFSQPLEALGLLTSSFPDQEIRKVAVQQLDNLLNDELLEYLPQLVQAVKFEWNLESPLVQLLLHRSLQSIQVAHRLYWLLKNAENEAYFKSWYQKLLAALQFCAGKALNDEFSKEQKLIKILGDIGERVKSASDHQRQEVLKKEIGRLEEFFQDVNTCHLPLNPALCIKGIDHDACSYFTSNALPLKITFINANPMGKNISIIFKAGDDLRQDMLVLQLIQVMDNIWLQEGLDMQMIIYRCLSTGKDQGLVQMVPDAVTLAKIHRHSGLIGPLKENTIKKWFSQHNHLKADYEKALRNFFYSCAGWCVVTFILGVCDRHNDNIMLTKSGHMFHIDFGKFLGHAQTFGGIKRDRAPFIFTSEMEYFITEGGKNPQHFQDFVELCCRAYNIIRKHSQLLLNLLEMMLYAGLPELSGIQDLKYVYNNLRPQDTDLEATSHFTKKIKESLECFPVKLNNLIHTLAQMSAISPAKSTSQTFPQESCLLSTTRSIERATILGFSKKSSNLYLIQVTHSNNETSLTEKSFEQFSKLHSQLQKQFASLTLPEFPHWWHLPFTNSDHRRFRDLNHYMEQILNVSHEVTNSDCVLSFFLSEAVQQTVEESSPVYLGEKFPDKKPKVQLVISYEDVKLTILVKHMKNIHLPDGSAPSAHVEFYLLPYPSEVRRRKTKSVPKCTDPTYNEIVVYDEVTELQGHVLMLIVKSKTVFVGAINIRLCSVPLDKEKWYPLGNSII
Put plainly: Selectivity interaction (KinomeScan (DiscoverX)) EUB0000655a PIK3C2G. The note with it: at 10 µM.

The target of assay [4] is T2, Ephrin type-A receptor 1 (Homo sapiens) (UniProt P21709).
T2 sequence (whole entry): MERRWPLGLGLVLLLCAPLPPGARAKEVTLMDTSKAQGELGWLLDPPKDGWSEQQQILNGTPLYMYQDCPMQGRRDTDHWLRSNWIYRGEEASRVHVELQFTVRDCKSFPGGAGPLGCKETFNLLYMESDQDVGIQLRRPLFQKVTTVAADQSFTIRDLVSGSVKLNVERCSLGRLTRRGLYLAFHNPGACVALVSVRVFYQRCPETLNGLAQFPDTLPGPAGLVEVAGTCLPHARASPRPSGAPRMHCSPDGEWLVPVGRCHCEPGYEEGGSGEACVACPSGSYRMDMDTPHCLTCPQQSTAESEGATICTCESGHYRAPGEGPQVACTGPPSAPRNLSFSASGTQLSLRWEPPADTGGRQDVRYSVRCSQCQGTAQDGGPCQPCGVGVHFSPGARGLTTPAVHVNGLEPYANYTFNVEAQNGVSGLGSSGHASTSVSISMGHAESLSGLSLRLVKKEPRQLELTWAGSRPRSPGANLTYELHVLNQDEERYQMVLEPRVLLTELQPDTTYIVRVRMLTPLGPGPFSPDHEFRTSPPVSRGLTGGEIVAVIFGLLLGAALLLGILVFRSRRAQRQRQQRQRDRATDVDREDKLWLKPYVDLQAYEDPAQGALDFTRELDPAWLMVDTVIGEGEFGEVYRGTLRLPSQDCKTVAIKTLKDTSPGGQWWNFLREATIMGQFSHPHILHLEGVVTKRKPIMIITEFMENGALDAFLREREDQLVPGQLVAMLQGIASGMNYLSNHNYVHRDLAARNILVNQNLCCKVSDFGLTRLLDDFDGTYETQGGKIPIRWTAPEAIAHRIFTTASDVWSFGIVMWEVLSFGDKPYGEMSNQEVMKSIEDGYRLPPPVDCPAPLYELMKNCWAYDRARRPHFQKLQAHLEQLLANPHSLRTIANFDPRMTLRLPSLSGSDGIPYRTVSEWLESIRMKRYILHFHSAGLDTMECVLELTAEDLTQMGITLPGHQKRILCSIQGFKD
Put plainly: Selectivity interaction (KinomeScan (DiscoverX)) EUB0001079a EPHA1. The settings on record: at 1 µM.

Interferon-induced, double-stranded RNA-activated protein kinase (Homo sapiens), sequence (P19525 whole entry): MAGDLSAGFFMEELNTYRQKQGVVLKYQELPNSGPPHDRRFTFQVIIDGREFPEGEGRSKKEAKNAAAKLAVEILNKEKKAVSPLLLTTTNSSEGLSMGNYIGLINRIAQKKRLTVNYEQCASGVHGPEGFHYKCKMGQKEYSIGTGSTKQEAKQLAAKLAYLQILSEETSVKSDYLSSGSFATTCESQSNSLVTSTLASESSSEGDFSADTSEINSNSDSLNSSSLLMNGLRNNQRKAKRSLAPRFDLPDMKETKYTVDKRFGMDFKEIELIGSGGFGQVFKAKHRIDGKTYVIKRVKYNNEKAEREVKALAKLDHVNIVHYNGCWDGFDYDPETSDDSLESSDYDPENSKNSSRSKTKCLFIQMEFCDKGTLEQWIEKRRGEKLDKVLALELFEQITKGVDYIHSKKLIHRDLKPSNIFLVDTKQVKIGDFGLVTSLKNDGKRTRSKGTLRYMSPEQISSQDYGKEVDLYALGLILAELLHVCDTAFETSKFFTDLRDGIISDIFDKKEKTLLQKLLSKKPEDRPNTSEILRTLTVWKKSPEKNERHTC

`N#Cc1cccc(-c2c[nH]c3ncnc(N4CCOCC4)c23)c1` showed a % of inhibition in assay [1] of 7%.

For the compound `C=CC(=O)Nc1cc(-n2c(=O)ccc3cnc4ccc(-c5ccc(NS(C)(=O)=O)cc5)cc4c32)ccc1C`, the % of control in assay [2] worked out at 81%.

In turn, `CN(C)CCOc1ccc(-c2nc(-c3ccncc3)c(-c3ccc4c(c3)CC/C4=N\O)[nH]2)cc1` came in with a % of control in assay [3] of 55%.

In turn, `Nc1cnc(N2CCc3cc(S(=O)(=O)Nc4c(F)cc(Cl)cc4F)cc(N4CCCC4=O)c32)nc1` [TP-020n] came in with a % of control in assay [4] of 99%.

Source of the values: ChEMBL document CHEMBL5465560, “Selectivity Literature for EUbOPEN Chemogenomic Library” (2024).
